In this data set the target is amyloid plaques (Homo sapiens, UniProt P05067). In words: In vivo staining after intraperitoneal injection in PS/APP Tg mice, sections viewed under fluorescent microscope. Further details: from tissue; host or cells: brain of PS/APP (APP/PS1) transgenic mice, as sections or in vivo. The procedure:
Methods used: Five groups each of 6-month-old PS/APP Tg mice were tested (which have abundant amyloid plaques) with the compounds of the present invention. The mice received an intraperitoneal injection of compounds 23, 8 or 8F (30 μg/gram). They were sacrificed 24 hours later by ip injection of sodium pentobarbital (150 mg/kg). All animals were transcardially perfused with 20 ml of 0.1 M phosphate buffered saline (pH 7.4) with the addition of heparin followed by 80 ml of 4% formaldehyde in 0.1 M phosphate buffer. The brain was removed from the skull, cryoprotected using increasing concentrations of sucrose, and cut into serial 40-μm-thick coronal section on a freezing microtome (Leica SM2400, Nussloch, Germany). Anti-amyloid β immunohistochemistry was performed on free-floating sections, using our previously published protocols^20-23. In brief, endogenous peroxidase activity was quenched in a bath with 0.3% H2O2 for 30 min. Unspecific staining was blocked by incubation in the blocking solution provided as a part of “Mouse on mouse” kit (Vector Elite staining kit, Vector Laboratories, Burlingame, Calif.). This procedure allows for detection of antigens in murine tissue using mouse mAb avoiding substantial background. Concentration of all mAbs was 0.25 mg/ml with the total concentration of protein in a stock solution of 1 mg/ml as assessed by a Coomasie colorimetric assay. 1:2000 dilution of the stock solution was used. Primary antibodies were applied for 30 minutes followed by thorough washing and the anti-mouse IgG biotinylated secondary antibody according to the kit manufacturer instruction. For fluorescent microscopy sections were incubated with streptavidin conjugated with Cy3 (1:400; Sigma, St. Louis Mo.) whereas for light microscopy they were incubated with avidin-horseradish peroxidase complex and developed using 3,3′-diaminobenzidine kit with nickel ammonium sulfate (Vector Laboratories, Burlingame, Calif.). Following immunostaining, sections were carried on slides, air-dried, and cover-slipped. […]

The mark [1] stands for this setting: AD mice, in vivo injection, sacrificed 24 hours after injection.

Sequence of amyloid plaques (P05067 672-713 limits assumed): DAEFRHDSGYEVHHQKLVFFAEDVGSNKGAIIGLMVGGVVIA

Regarding `COc1ccc2nc(/C=C/c3ccc(-c4ccc(F)cc4)cc3)ccc2c1` [compound 8F], under setting [1], the “ability to cross the blood brain barrier” value is “able to cross the blood brain barrier” and the “labeling of amyloid plaques in vivo” value is given as “label amyloid plaques in vivo”. Further, the “effectiveness in blood-brain barrier permeability and labeling amyloid plaques in tissue sections and in vivo” value (AD model transgenic mice) is “most effective”.

The values above are taken from patent US8158380B2, “Imaging agents for protein misfolding” (New York University, priority 2007, dated 2012).
